Data on one compound can be found in US20240287172A1, “PROTEIN BINDERS TO IRHOM2 EPITOPES” (SCIRHOM GMBH, priority 2019, published 2024).

The test system of test [1] is PMA-induced release of endogenous IL-6R from human THP-1 monocytic cells. Nature of the test: ELISA-based IL-6R release assay, PMA-induced, THP-1 cells. In kind it is cell-based. The following applies: PMA 25 ng/ml, 1 hour, recombinant murine antibodies and IgG at 1 μg/ml, Batimastat at 10 μM. Here is the method: (§1) In brief, on day 1, Nunc black MaxiSorp® 96-well plates (Thermo Fisher Scientific, USA) were coated for 7 hours with 100 μl per well of mouse anti-human IL-6R capture antibody (provided as part of the DuoSet ELISA kit) at 2 μg/ml TBS at room temperature. Capture antibody solution was removed and MaxiSorp® plates were blocked with 300 μl per well of TBS, 1% BSA at room temperature for 1.5 hours. Meanwhile, 40,000 THP-1 (American Type Culture Collection, USA) cells in 80 μl of normal growth medium were seeded in each well of Greiner CELLSTAR V-bottom 96-well plates (Thermo Fisher Scientific, USA) and pre-incubated with 20 μl per well of standard growth medium supplemented with Batimastat (BB94, Abcam, UK) at 50 μM as positive control (for a final concentration of 10 μM in the resulting 100 μl sample volume), mouse IgG antibody (Thermo Fisher Scientific, USA) at 5 μg/ml as isotype control (for a final concentration of 1 μg/ml in the resulting 100 μl sample volume) or antibodies of the invention at 5 μg/ml (for a final concentration of 1 μg/ml in the resulting 100 μl sample volume) at 37° C., 5% CO2 for 30 minutes. […] Using an infinite M1000 (Tecan Group, Switzerland) microplate reader, the fluorescence of each well was collected at an excitation wavelength of 435 nm and an emission wavelength of 555 nm.
(In general: An ELISA detects its analyte on a solid surface through an enzyme-linked reagent.)

Test [2] relates to PMA-induced release of endogenous IL-6R from PBMCs from healthy donors. The test is described as follows: ELISA-based IL-6R release assay, PMA-induced, PBMCs from healthy donors. It counts as cell-based. As to conditions: Homo sapiens, PBMC; PMA 25 ng/ml, 6 hours; recombinant murine antibodies and IgG at 1 μg/ml; Batimastat at 10 μM. How it is done: as §1, with “coated overnight” for “coated for 7 hours”, “at 4” for “at 2”, “at 4° C. On day 2, the capture” for “at room temperature. Capture”, “for 3” for “for 1.5”, “40,000 PBMC from healthy donors (STEMCELL Technologies, Canada)” for “40,000 THP-1 (American Type Culture Collection, USA)”

For orientation: inhibition means the change of the read-out against control, counted positive when it falls. For the compound `CNC(=O)[C@H](Cc1ccccc1)NC(=O)[C@H](CC(C)C)[C@H](CSc1cccs1)C(=O)NO` [Batimastat], the inhibition at 10 µM in test [1] is 88.6%; in test [2] it was 114%.
